# Results as given in patent publication US11807871B2, “Complex human gut microbiome cultured in an anaerobic human gut-on-a-chip” (President and Fellows of Harvard College, priority 2018, dated 2023).
# Tested on: primary human colon epithelial cells infected with EHEC
# Experiment: Colon chip EHEC infection, epithelial lesion analysis
# Type: cell-based
# Conditions: metabolites added individually to a colon-chip
# Method: Referring generally to FIGS. 18A-18C, microbiome metabolites recapitulate species-specific tolerance in Colon Chips. Human or mouse intestinal microbiome metabolites (e.g., isolated from specific strains of bacterial or fecal samples incubated in a bioreactor) were added to the intestinal channel of optically clear, human colon chips that are lined by primary human colon epithelial cells and directly opposed to a second parallel vascular microchannel in which HIMVECs are cultured. The two channels are separated by a thin, porous, ECM-coated membrane. Human intestinal epithelium was isolated from resections or endoscopic tissue biopsies. Endoscopic biopsies were collected from macroscopicallynormal (grossly unaffected) areas of the colon undergoing endoscopy for abdominal complaints. Organoids were grown from these tissue samples and seeded into the upper chamber of a two channel closed top microfluidic device. Human intestinal microvascular endothelial cells (HIMECs) were obtained from ScienCell (Cat #2900). The intestinal luminal channel medium was switched to 5% (vol vol-1) human (Hmm) or mouse (Mmm) gut microbiome metabolites isolated from PolyFermS bioreactors, diluted in phosphate-buffered saline (PBS) containing calcium and magnesium (final osmolarity=300 mOsm kg-1), filtered through a 0.2 μm filter (Corning), and stored at −80° C.
# For example, on day 8 of a colon chip culture, the luminal culture medium is replaced with the same medium supplemented with human or murine microbiome metabolites (diluted 1:20 in a PBS-water based solution to 300 mOsm kg-1), while continuing to flow the same endothelial culture medium through the vascular channel. Perfusion is continued for 24 hours, followed by introduction of EHEC (1.7×105; serotype O157:H7) into the apical lumen in the same medium for 3 hours under static conditions to allow for bacterial cell attachment; medium flow is then re-established and continued for 24 additional hours.
# Referring to colon chip infection, colon chips were cultured in the intestinal lumen channel of a chip in 5% (vol vol-1) human or mouse gut microbiome metabolites isolated from PolyFermS bioreactors, diluted in phosphate-buffered saline (PBS; final osmolarity=300 mOsm kg-1) or 24 hours. The following day, the intestinal channel was infected with 1.7×105. EHEC-GFP or EHEC A fliC (both generated from NR-3 E. coli/EDL931; serotype O157:H7), by adding the bacteria into the channel lumen in medium again with or without Hmm or Mmm. […]
# For epithelial lesion analysis, one day post-infection, colon chips were washed with PBS and fixed with 4% paraformaldehyde in PBS for 2 hours. […] The area occupied by cells and the total area of the chip were measured using Fiji software.
row,SMILES,epithelial injury during a EHEC infection of the chip
1,CCCCCC(=O)O [hexanoic acid],enhance epithelial injury
2,Cc1ccc(C(=O)O)cc1 [4-methyl benzoic acid],enhance epithelial injury
3,CCCCCCC(=O)O [heptanoic acid],enhance epithelial injury
4,"Cc1ccc(C(=O)O)cc1C [3,4-dimethylbenzoic acid]",enhance epithelial injury
